Laboratory results published in patent US7863271B2, “2-aminobenzoxazole carboxamides as 5HT3 modulators” (Albany Molecular Research, Inc., priority 2006, dated 2011).
Where a name gives a salt, the structure may show the parent alone.

Target: T1, 5-HT3 (Homo sapiens, UniProt P46098)
T1 sequence (P46098 24-478): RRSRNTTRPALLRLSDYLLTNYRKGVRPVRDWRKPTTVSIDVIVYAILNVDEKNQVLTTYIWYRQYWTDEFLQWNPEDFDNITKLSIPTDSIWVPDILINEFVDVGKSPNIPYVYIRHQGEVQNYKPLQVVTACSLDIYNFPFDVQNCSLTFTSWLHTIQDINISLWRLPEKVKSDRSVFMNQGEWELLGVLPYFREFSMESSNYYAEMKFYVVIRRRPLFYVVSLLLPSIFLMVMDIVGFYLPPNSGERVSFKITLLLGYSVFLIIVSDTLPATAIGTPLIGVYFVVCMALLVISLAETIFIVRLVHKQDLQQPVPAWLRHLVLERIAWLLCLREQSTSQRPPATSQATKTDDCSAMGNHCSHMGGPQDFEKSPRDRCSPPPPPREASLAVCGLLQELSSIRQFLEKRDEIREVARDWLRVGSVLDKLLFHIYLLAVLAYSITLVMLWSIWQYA
Assay: Compound affinity for the human 5-HT3 receptor (Assay B), SPA radioligand binding with [9-methyl-3H]BRL-43694
Parameters: purchased Perkin Elmer
Settings: Assay B (method B unless otherwise annotated); read-out: 5-HT3 Ki
Procedure: Compound Affinity for the human 5-HT3 Receptor (Assay B)
The relative affinity of the various compounds for the human 5-HT3 receptor was measured in a radioligand binding assay, using a scintillation proximity assay (SPA) format. Test compounds were dissolved to 10 mM in 100% DMSO, then serially diluted at 10× assay concentrations in 100% DMSO in 96-well polypropylene plates and further diluted to 4× assay concentrations with the assay buffer. […] Binding reactions were set up in wells of PicoPlates-96 (Perkin Elmer) by adding consecutively 50 μL of each competing compound or buffer, SPA beads, the radioligand and 5-HT3 receptor membranes. After 60-min incubation at room temperature on a Nutator mixer, plates were centrifuged for 15 min at 1,500 rpm, followed by incubation in the dark for 30 min. Radioactivity was counted in the TopCount microplate counter (Perkin Elmer) for 5 min. […] Specific binding was determined by subtracting nonspecific binding from total binding. All experiments were performed in duplicate using ten concentrations of a competing ligand, with ondansetron included as a control in every run. IC50 values were determined from specific binding data using XLfit4.1 curve fitting software from IDBS Ltd. Ki values were then calculated from the Cheng-Prusoff equation.

`CC(O)CCNc1nc2c(C(=O)N[C@H]3C[C@H]4CCC[C@@H](C3)N4C)cccc2o1` (stereo partly drawn) [Example 61, Endo-N-(9-methyl-9-azabicyclo[3.3.1]nonan-3-yl)-2-(3-hydroxybutylamino)benzoxazole-4-carboxamide Hydrochloride] and `CN1[C@@H]2CCC[C@H]1C[C@@H](NC(=O)c1cccc3oc(NC4CCCCC4)nc13)C2` [Example 70, Endo-N-(9-Methyl-9-azabicyclo[3.3.1]nonan-3-yl)-2-(cyclohexylamino)benzoxazole-4-carboxamide Hydrochloride] are within 1.5-fold of each other in Ki: 19.9 nM for the first, 19.2 nM for the second.

First: CC[C@H]1COCCN1c1nc2c(C(=O)NC3CC4CCCC(C3)N4C)cc(Cl)cc2o1 (stereo partly drawn) [Example 62, Endo-N-(9-Methyl-9-azabicyclo[3.3.1]nonan-3-yl)-6-chloro 2-((S-3-ethylmorpholino)benzoxazole-4-carboxamide Hydrochloride]
Second: CCC[C@H]1COCCN1c1nc2c(C(=O)NC3CC4CCCC(C3)N4C)cccc2o1 (stereo partly drawn) [Example 66, Endo-N-(9-Methyl-9-azabicyclo[3.3.1]nonan-3-yl)-2-((S)-3-propylmorpholino)benzoxazole-4-carboxamide Hydrochloride]
The Ki of the first is 1.5-fold higher: 6.3 nM for the first, 4.1 nM for the second.

First: C[C@H]1CN(C)CCN1c1nc2c(C(=O)NC3CC4CCCC(C3)N4C)cc(Cl)cc2o1 (stereo partly drawn) [Example 63, Endo-N-(9-methyl-9-azabicyclo[3.3.1]nonan-3-yl)-6-chloro-2-((S-2,4-dimethylpiperazin-1-yl)benzoxazole-4-carboxamide Hydrochloride]
Second: CN1C2CCCC1CC(NC(=O)c1cccc3oc(N4CCOC[C@@H]4C(C)(C)C)nc13)C2 (stereo partly drawn) [Example 68, Endo-N-(9-Methyl-9-azabicyclo[3.3.1]nonan-3-yl)-2-((S)-3-tert-butylmorpholino)benzoxazole-4-carboxamide Hydrochloride]
The Ki of the first is 8.1-fold higher: 16.1 nM for the first, 2 nM for the second.

Going from `COc1ccccc1Nc1nc2c(C(=O)N[C@H]3C[C@H]4CCC[C@@H](C3)N4C)cccc2o1` [Example 64, Endo-N-(9-methyl-9-azabicyclo[3.3.1]nonan-3-yl)-2-(2-methoxyphenylamino)benzoxazole-4-carboxamide Hydrochloride] to `CC(C)C[C@H]1CN(Cc2ccccc2)CCN1c1nc2c(C(=O)NC3CC4CCCC(C3)N4C)cccc2o1` (stereo partly drawn) [Example 71, Endo-N-(9-Methyl-9-azabicyclo[3.3.1]nonan-3-yl)-2-((2S)-2-isobutyl-4-benzylpiperazin-1-yl)benzoxazole-4-carboxamide Hydrochloride], the Ki rises from 16.2 nM to 48.6 nM (3-fold). The first binds more tightly here.

First: CC(C)C[C@H]1COCCN1c1nc2c(C(=O)NC3CC4CCCC(C3)N4C)cccc2o1 (stereo partly drawn) [Example 67, Endo-N-(9-Methyl-9-azabicyclo[3.3.1]nonan-3-yl)-2-((S)-3-isobutylmorpholino)benzoxazole-4-carboxamide Hydrochloride]
Second: CC(C)C[C@H]1CN(c2nc3c(C(=O)NC4CC5CCCC(C4)N5C)cccc3o2)CCN1 (stereo partly drawn) [Example 74, Endo-N-(9-Methyl-9-azabicyclo[3.3.1]nonan-3-yl)-2-((3S)-3-isobutylpiperazine-1-yl)benzoxazole-4-carboxamide Hydrochloride]
The Ki of the first is 19-fold lower: 3.9 nM for the first, 72.9 nM for the second.

Going from `C[C@@H]1CNC[C@@H](C)N1c1nc2c(C(=O)NC3CC4CCCC(C3)N4C)cccc2o1` (stereo partly drawn) [Example 69, Endo-N-(9-Methyl-9-azabicyclo[3.3.1]nonan-3-yl)-2-((2R,6R)-2,6-dimethylpiperazin-1-yl)benzoxazole-4-carboxamide Hydrochloride] to `C[C@H]1CNC[C@H](C)N1c1nc2c(C(=O)NC3CC4CCCC(C3)N4C)cccc2o1` (stereo partly drawn) [Example 73, Endo-N-(9-Methyl-9-azabicyclo[3.3.1]nonan-3-yl)-2-((2S,6S)-2,6-dimethylpiperazin-1-yl)benzoxazole-4-carboxamide Hydrochloride], the Ki falls from 32.7 nM to 2.2 nM (15-fold).

In the case of `CN1[C@@H]2CCC[C@H]1C[C@@H](NC(=O)c1cccc3oc(=S)[nH]c13)C2` [Example 72, Endo N-(9-methyl-9-azabicyclo[3.3.1]nonan-3-yl)-2-thioxo-2,3-dihydrobenzoxazole-4-carboxamide Hydrochloride], the Ki is reported as 30.8 nM.
